Experimental data taken from PubChem BioAssay (NCI).
“And” between values parts separate entries of the source, which are not always exact repeats. Equal values may be shown once.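 A five-concentration, 48-hour dose response in 96-well plates underlies each endpoint, interpolated linearly between surrounding concentrations. Here, GI50 denotes the concentration required for 50% inhibition of growth. TGI marks complete inhibition of growth.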

How the values were obtained:
Experiment in all cases: NCI anticancer screen, dose series, 48 h
A549 NSCLC = test system: A549 NSCLC
CCRF-CEM leukemia = test system: CCRF-CEM leukemia
HOP-92 NSCLC = test system: HOP-92 NSCLC
M14 melanoma = test system: M14 melanoma
MALME-3M melanoma = test system: MALME-3M melanoma
OVCAR-3 ovarian = test system: OVCAR-3 ovarian
SN12C renal = test system: SN12C renal
T-47D breast = test system: T-47D breast
TK-10 renal = test system: TK-10 renal
MOLT-4 leukemia = test system: MOLT-4 leukemia

OCCn1cnc2c(SCc3ccccc3)ncnc21
TGI (A549 NSCLC): > 100 µM
TGI (CCRF-CEM leukemia): > 100 µM
TGI (HOP-92 NSCLC): > 100 µM
TGI (M14 melanoma): > 100 µM
TGI (MALME-3M melanoma): > 100 µM
TGI (OVCAR-3 ovarian): > 100 µM
TGI (SN12C renal): > 100 µM
TGI (T-47D breast): > 100 µM
TGI (TK-10 renal): > 100 µM

NC(=O)Nc1cc(-c2cccc(F)c2)sc1C(=O)N[C@H]1CCCNC1
GI50 (A549 NSCLC): 188 nM and 356 nM
TGI (A549 NSCLC): 4.48 µM and 2.12 µM
GI50 (CCRF-CEM leukemia): 41.4 nM and 124 nM
TGI (CCRF-CEM leukemia): > 2.96 µM and 3 µM
GI50 (HOP-92 NSCLC): 0.0553 µM and 0.416 µM
TGI (HOP-92 NSCLC): 1.2 µM and 1.71 µM
GI50 (M14 melanoma): 31 nM and 102 nM
TGI (M14 melanoma): 0.476 µM and 0.525 µM
GI50 (MALME-3M melanoma): 232 nM and 729 nM
TGI (MALME-3M melanoma): 4.95 µM and 6.8 µM
GI50 (MOLT-4 leukemia): 60.6 nM and 260 nM
TGI (MOLT-4 leukemia): > 10 µM and 1.8 µM
GI50 (OVCAR-3 ovarian): 168 nM and 550 nM
TGI (OVCAR-3 ovarian): 4.56 µM and 5.17 µM
GI50 (SN12C renal): 88.9 nM and 218 nM
TGI (SN12C renal): 3.28 µM and 3.27 µM
GI50 (T-47D breast): 1.07 µM and 2.71 µM
TGI (T-47D breast): > 10 µM and 18.8 µM
GI50 (TK-10 renal): 0.111 µM and 0.251 µM
TGI (TK-10 renal): 1.58 µM and 1.38 µM

CN(C)c1ccc(C(=NO)c2ccc(N(C)C)cc2)cc1
GI50 (A549 NSCLC): 3340 nM
TGI (A549 NSCLC): > 100 µM
GI50 (CCRF-CEM leukemia): 3270 nM
TGI (CCRF-CEM leukemia): > 100 µM
GI50 (HOP-92 NSCLC): 15.2 µM
TGI (HOP-92 NSCLC): > 100 µM
GI50 (MALME-3M melanoma): 2630 nM
TGI (MALME-3M melanoma): > 100 µM
GI50 (MOLT-4 leukemia): 3020 nM
TGI (MOLT-4 leukemia): > 100 µM
GI50 (OVCAR-3 ovarian): 2220 nM
TGI (OVCAR-3 ovarian): 10.1 µM
GI50 (SN12C renal): 4940 nM
TGI (SN12C renal): > 100 µM
GI50 (T-47D breast): 5.59 µM
TGI (T-47D breast): > 100 µM
GI50 (TK-10 renal): 7.47 µM
TGI (TK-10 renal): 98.6 µM

Cc1cnc(CNC(=O)c2c(=O)c3ccc(N4CCCN(C)CC4)nc3n3c2sc2ccccc23)cn1
GI50 (A549 NSCLC): 330 nM
TGI (A549 NSCLC): 7.23 µM
GI50 (CCRF-CEM leukemia): 1960 nM
TGI (CCRF-CEM leukemia): 19.9 µM
GI50 (HOP-92 NSCLC): 16.4 µM
TGI (HOP-92 NSCLC): 32.2 µM
GI50 (M14 melanoma): 6490 nM
TGI (M14 melanoma): 23 µM
GI50 (MALME-3M melanoma): 9240 nM
TGI (MALME-3M melanoma): 25.8 µM
GI50 (MOLT-4 leukemia): 83.9 nM
TGI (MOLT-4 leukemia): 10.7 µM
GI50 (OVCAR-3 ovarian): 7200 nM
TGI (OVCAR-3 ovarian): 22 µM
GI50 (SN12C renal): 1320 nM
TGI (SN12C renal): 19.9 µM
GI50 (T-47D breast): 17.3 µM
TGI (T-47D breast): 45.6 µM
GI50 (TK-10 renal): 8.94 µM
TGI (TK-10 renal): 23 µM

O=C1C(c2cnc3ccccc3n2)=C(O)c2ccccc21
TGI (A549 NSCLC): > 100 µM
TGI (CCRF-CEM leukemia): > 100 µM
TGI (HOP-92 NSCLC): > 100 µM
TGI (M14 melanoma): > 100 µM
TGI (MALME-3M melanoma): > 100 µM
TGI (MOLT-4 leukemia): > 100 µM
TGI (OVCAR-3 ovarian): > 100 µM
TGI (SN12C renal): > 100 µM
TGI (T-47D breast): > 100 µM
TGI (TK-10 renal): > 100 µM

Cc1ccc(-c2nc3nc(-c4ccccc4)nc(N4CCNCC4)c3o2)cc1
GI50 (A549 NSCLC): 788 nM
TGI (A549 NSCLC): 2.5 µM
GI50 (CCRF-CEM leukemia): 276 nM
TGI (CCRF-CEM leukemia): 0.729 µM
GI50 (HOP-92 NSCLC): 1.48 µM
TGI (HOP-92 NSCLC): 3.13 µM
GI50 (M14 melanoma): 1770 nM
TGI (M14 melanoma): 3.25 µM
GI50 (MALME-3M melanoma): 1810 nM
TGI (MALME-3M melanoma): 3.59 µM
GI50 (MOLT-4 leukemia): 238 nM
TGI (MOLT-4 leukemia): 0.573 µM
GI50 (OVCAR-3 ovarian): 187 nM
TGI (OVCAR-3 ovarian): 0.352 µM
GI50 (SN12C renal): 849 nM
TGI (SN12C renal): 2.31 µM
GI50 (T-47D breast): 0.832 µM
TGI (T-47D breast): 2.6 µM
GI50 (TK-10 renal): 0.747 µM
TGI (TK-10 renal): 1.71 µM

COc1ccc(C2=CC(c3ccc(OC)cc3Br)N3C=CSC3=N2)cc1 (configuration not stated)
GI50 (A549 NSCLC): 10500 nM
TGI (A549 NSCLC): 39 µM
GI50 (CCRF-CEM leukemia): 2690 nM
TGI (CCRF-CEM leukemia): > 100 µM
GI50 (HOP-92 NSCLC): 5.78 µM
TGI (HOP-92 NSCLC): 41.8 µM
GI50 (M14 melanoma): 5210 nM
TGI (M14 melanoma): 20.8 µM
GI50 (MALME-3M melanoma): 14000 nM
TGI (MALME-3M melanoma): 32.3 µM
GI50 (MOLT-4 leukemia): 2930 nM
TGI (MOLT-4 leukemia): 9.64 µM
GI50 (OVCAR-3 ovarian): 4110 nM
TGI (OVCAR-3 ovarian): 14.8 µM
GI50 (SN12C renal): 10000 nM
TGI (SN12C renal): 25.5 µM
GI50 (T-47D breast): 9.21 µM
TGI (T-47D breast): 40.4 µM
GI50 (TK-10 renal): 13.9 µM
TGI (TK-10 renal): 33.3 µM
